The values below come from patent US8828987B2, “Pyridine amide derivatives as EP4 receptor antagonists” (Rottapharm Biotech S.R.L., priority 2010, dated 2014).

Assay [1] deals with T1, human EP4 receptor (Homo sapiens, UniProt P35408).
T1 construct: expressed in transfected cells; membrane fraction used
The assay is described as follows: [3H]-Prostaglandin E2 membrane binding assay (human EP4/HEK293 transfectant membranes). To be noted: [3H]-PGE2 1 nM, hEP4/HEK293 membranes; Ki by Cheng-Prusoff; read-out: Binding pKi (converted). From the text: (§1) Stable Expression of Human EP4 Receptors in the Human Embryonic Kidney (HEK293) Cell Line
(§2) The cDNA clone of human EP4 receptor (NM_000958.2) was obtained from Invitrogen™: Ultimate™ ORF Clone Collection—Clone ID IOH46525. The coding sequence was subcloned in expression vector pcDNA™6.2/V5-DEST by Gateway technology (Invitrogen™).
(§3) Human embryonic kidney cells (HEK-293) were stably transfected with expression vector for human EP4 receptor in according to the method described in FuGENE®6 Transfection Reagent's manual (Roche Applied Science®).
(§4) Preparation of Membrane Fraction:
(§5) The EP4 transfected cells were grown in Dulbecco's modified Eagle's medium containing 10% fetal bovine serum and 10 μg/ml Blasticidin S HCl (selection medium) at 37° C. in a humidified atmosphere of 5% CO2 in air.
(§6) For the membrane preparation, cells in flask were harvested by hypotonical/mechanical lysis with chilled (4° C.) TE buffer (5 mM TRIS, 5 mM etylenediamine tetra-acetic acid (EDTA), pH 7.4).
(§7) Cells were detached and lysed with 10 ml of hypotonic lysis buffer and by scraping. The cell lysate was vortexed for 30 sec and centrifuged at 40000×g at 4° C. for 22 min.
a) Membrane Binding Assay[3H]-Prostaglandin E2
The membrane pellet was resuspended in the same buffer (5 mM TRIS, 5 mM ethylenediamine tetra-acetic acid (EDTA), pH 7.4), and protein concentration was determined by Bradford method (Bio-Bad® assay).
This membrane preparation was stored at −80° C. freezer until use for binding assay.
([^3H]-PGE2) membranes binding assays toward hEP4 receptors (human EP4/HEK293 transfectant, see above) and hEP2 receptors (human EP2/HEK293 transfectant, purchased from PerkinElmer Inc) were performed in 10 mM MES-KOH buffer pH6, containing 10 mM MgCl2 and 1 mM CaCl2 for EP4 binding assay or 50 mM Tris-Cl, BSA 0.5% for EP2 binding assay (according to supplier indication).
Ten microgram of protein from membrane fractions were incubated in a total volume of 0.1 ml (EP4) or 0.2 ml (EP2) with 1 nM (EP4) or 3 nM (EP2) [^3H]-PGE2 (PerkinElmer Inc, 171 Ci/mmol). In both assays to determine the total binding or non specific binding, 1% DMSO or 1 μM prostaglandin E2 (EP4) or 100 μM (EP2) were added to reaction mixtures, respectively. Incubation was conducted in a polypropylene 96 multiwell for 90 min (EP4) or 60 min (EP2) at room temperature prior to separation of the bound and free radioligand by vacuum manifold rapid filtration on glass fiber filters (Unifilter GFB96, PerkinElmer Inc) pre-soaked in 0.3% polyethyleneimine. Filters were washed with ice cold buffer pH 7.4 (50 mM HEPES, NaCl 500 mM, BSA 0.1% for EP4 binding assay or 50 mM Tris-Cl for EP2 binding assays) and the residual [^3H]-PGE2 binding determined by solid scintillation counter (TopCount, PerkinElmer Inc).
The affinity (Ki) of each compound was calculated according to the Cheng-Prousoff equation: Ki=IC50/(1+([C]/Kd)). Results were expressed as pKi (−log 10 Ki (M)
Compounds of example 1 to 82 were tested according to method of example 83a in a final concentration range from 1 nM to 1 μM.

Assay [2] addresses T1, human EP4 receptor. As to the kind of experiment: cAMP assay (AlphaScreen) on human EP4 membrane of transfected cells, antagonism of PGE2. The format is biochemical. To be noted: HEK293 hEP4 cell membrane stimulated with PGE2 3 nM; read-out: functional IC50.
Text: as §1, §2, §3, §4, §5, §6, §7
b) cAMP Assay on Human EP4 Membrane of Transfected Cells.
The assay is based on the competition between endogenous cAMP and exogenously added biotinylated cAMP. The capture of cAMP is achieved by using a specific antibody conjugated to […] beads.
Cell membranes prepared as described above, were resuspended in 1 ml stimulation buffer (HBSS 1×+BSA 0.1%+IBMX 0.5 mM+HEPES 5 mM+MgCl2 10 mM+GTP 1 nM+GDP 10 μM+ATP 100 μM−pH 7.4). Cell membranes were dispensed into white 384-well microplates at final concentration of 1 μg/well and used for the determination of cAMP with the alphascreen cAMP functional assay (EnVision—PerkinElmer). Cell membrane/anti-cAMP Acceptor beads mix (5 μl) and a mixture of analysed compounds (dissolved in 100% DMSO to a final maximal concentration of 0.01% DMSO)/PGE2 (5 μl) were incubated at room temperature (22-23° C.) for 30 min in the dark. The Biotinylated-cAMP and donor beads (15 μl) were dispensed into each well to start the competition reaction. After 1 h incubation RT (22-23° C.) in the dark the plate was read using EnVision platform to determine the cAMP level (excitation: 680 nm; emission: 520,620 nm).
cAMP standard curve (concentration range from 1×10-6 to 1×10-11 M in. log intervals) with a negative control (no cAMP) a positive control:forskolin 10 μM
Antagonism studies were performed stimulating HEK293 cell membrane with PGE2 3 nM. The AlphaScreen signal is plotted as a function of log concentration of cAMP and functional IC50 is determined. IC50 value is calculated by linear regression.
Some compounds were tested according to method of example 83b.

T1 sequence (P35408 whole entry): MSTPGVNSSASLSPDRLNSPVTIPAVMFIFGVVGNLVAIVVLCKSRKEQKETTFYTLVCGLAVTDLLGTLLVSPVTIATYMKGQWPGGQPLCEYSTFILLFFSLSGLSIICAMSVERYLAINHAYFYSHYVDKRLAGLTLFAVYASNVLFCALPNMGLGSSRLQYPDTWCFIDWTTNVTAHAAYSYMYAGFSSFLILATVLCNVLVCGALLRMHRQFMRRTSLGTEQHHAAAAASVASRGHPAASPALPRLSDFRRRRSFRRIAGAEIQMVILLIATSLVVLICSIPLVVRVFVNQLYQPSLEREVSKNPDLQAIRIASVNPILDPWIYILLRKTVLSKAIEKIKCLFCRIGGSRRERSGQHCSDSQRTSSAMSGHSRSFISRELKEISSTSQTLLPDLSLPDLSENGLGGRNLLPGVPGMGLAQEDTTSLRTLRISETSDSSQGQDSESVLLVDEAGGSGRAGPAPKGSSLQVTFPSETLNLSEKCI

As for `O=C(O)c1ccc(C2(NC(=O)c3cc(Cl)cnc3N3CCCC3c3ccccc3)CC2)cc1` (single isomer, unassigned) [E 3, 4-(1-(5-chloro-2-(2-phenylpyrrolidin-1-yl)nicotinamido)cyclopropyl)benzoic acid], the Ki at human EP4 receptor [1] is 31.6 nM. The IC50 on human EP4 receptor [2] was found to be 133 nM.

Regarding `O=C(O)c1ccc(C2(NC(=O)c3cc(C(F)(F)F)cnc3N3CC(Oc4cccc(OC(F)(F)F)c4)C3)CC2)cc1` [E 43, 4-(1-(2-(3-(3-(trifluoromethoxy)phenoxy)azetidin-1-yl)-5-(trifluoromethyl)nicotinamido)cyclopropyl)benzoic acid], the Ki on human EP4 receptor [1] is 3.16 nM. Further, the IC50 at human EP4 receptor [2] amounted to 38 nM.

Take `C[C@H](NC(=O)c1cc(Cl)cnc1N1CC(Oc2cccc(F)c2)C1)c1ccc(C(=O)O)cc1` [E 12, (S)-4-(1-(5-chloro-2-(3-(3-fluorophenoxy)azetidin-1-yl)nicotinamido)ethyl)benzoic acid]: the Ki on human EP4 receptor [1] is 15.8 nM. Moreover, on human EP4 receptor [2], the 50% inhibitory concentration (IC50) was 102 nM.

Regarding `O=C(O)c1ccc(C2(NC(=O)c3cc(Cl)cnc3N3CC(Oc4ccc(C(F)(F)F)cc4)C3)CC2)cc1` [E 13, 4-(1-(5-chloro-2-(3-(4-(trifluoromethyl)phenoxy)azetidin-1-yl)nicotinamido)cyclopropyl)benzoic acid], on human EP4 receptor [1], the Ki was 25.1 nM. The IC50 on human EP4 receptor [2] was determined as 187 nM.

Turning to `O=C(O)c1ccc(C2(NC(=O)c3cc(Cl)cnc3N3CC(Nc4cccc(F)c4)C3)CC2)cc1` [E 32, 4-(1-(5-chloro-2-(3-((3-fluorophenyl)amino)azetidin-1-yl)nicotinamido)cyclopropyl)benzoic acid], the Ki on human EP4 receptor [1] is 25.1 nM. Further, the half-inhibitory concentration (IC50) on human EP4 receptor [2] was determined as 76 nM.

On to `Cc1cc(F)ccc1NC1CN(c2ncc(F)cc2C(=O)NC2(c3ccc(C(=O)O)cc3)CC2)C1` [E 56, 4-(1-(5-fluoro-2-(3-((4-fluoro-2-methylphenyl)amino)azetidin-1-yl)nicotinamido)cyclopropyl)benzoic acid], for which, on human EP4 receptor [1], the Ki was 10 nM. The IC50 on human EP4 receptor [2] was found to be 46 nM.

As for `O=C(O)c1ccc(C2(NC(=O)c3cc(Cl)cnc3N3CC(Oc4cccc(N5CCNCC5)c4)C3)CC2)cc1` [E 21, 4-(1-(5-chloro-2-(3-(3-(piperazin-1-yl)phenoxy)azetidin-1-yl)nicotinamido)cyclopropyl)benzoic acid], at human EP4 receptor [1], the Ki was 63.1 nM. For the same compound, the IC50 at human EP4 receptor [2] was determined as 191 nM.

As for `O=C(O)c1ccc(C2(NC(=O)c3cc(Cl)cnc3N3CCC(Oc4cccc(C(F)(F)F)c4)C3)CC2)cc1` (single isomer, unassigned) [E 64, 4-(1-(5-chloro-2-(3-(3-(trifluoromethyl)phenoxy)pyrrolidin-1-yl)nicotinamido)cyclopropyl)benzoic acid], the Ki at human EP4 receptor [1] is 31.6 nM. Also, on human EP4 receptor [2], the IC50 was 99 nM.

With `O=C(O)c1ccc(C2(NC(=O)c3cc(Cl)cnc3N3CC(C(=O)c4cccc(F)c4)C3)CC2)cc1` [E 25, 4-(1-(5-chloro-2-(3-(3-fluorobenzoyl)azetidin-1-yl)nicotinamido)cyclopropyl)benzoic acid], the Ki on human EP4 receptor [1] is 63.1 nM. For the same compound, the IC50 at human EP4 receptor [2] is 135 nM.

For the compound `O=C(O)c1ccc(C2(NC(=O)c3cc(C(F)(F)F)cnc3N3CC(Nc4ccc(F)cc4)C3)CC2)cc1` [E 50, 4-(1-(2-(3-((4-fluorophenyl)amino)azetidin-1-yl)-5-(trifluoromethyl)nicotinamido)cyclopropyl)benzoic acid], on human EP4 receptor [1], the Ki was 12.6 nM. On human EP4 receptor [2], the IC50 amounted to 23 nM.

Take `O=C(O)c1ccc(C2(NC(=O)c3cc(Cl)cnc3N3CCC(Oc4ccccc4)C3)CC2)cc1` (single isomer, unassigned) [E 60]: the Ki on human EP4 receptor [1] was 79.4 nM. For the same compound, on human EP4 receptor [2], the IC50 came to 96.5 nM.

Consider `O=C(O)c1ccc(C2(NC(=O)c3cc(C(F)(F)F)cnc3N3CC(Nc4ccc(F)cc4F)C3)CC2)cc1` [E 52, 4-(1-(2-(3-((2,4-difluorophenyl)amino)azetidin-1-yl)-5-(trifluoromethyl)nicotinamido)cyclopropyl)benzoic acid], for which the Ki at human EP4 receptor [1] was 20 nM. In addition, the IC50 at human EP4 receptor [2] turned out to be 74 nM.

Turning to `O=C(O)c1ccc(C2(NC(=O)c3cc(Cl)cnc3N3CCC(Oc4cccc(C(F)(F)F)c4)C3)CC2)cc1` (single isomer, unassigned) [E 65, 4-(1-(5-chloro-2-(3-(3-(trifluoromethyl)phenoxy)pyrrolidin-1-yl)nicotinamido)cyclopropyl)benzoic acid], at human EP4 receptor [1], the Ki is 39.8 nM. Also, on human EP4 receptor [2], the IC50 is 65 nM.

With `O=C(O)c1ccc(C2(NC(=O)c3cc(Cl)cnc3N3CC(Oc4cccc(C(F)(F)F)c4)C3)CC2)cc1` [E 14, 4-(1-(5-chloro-2-(3-(3-(trifluoromethyl)phenoxy)azetidin-1-yl)nicotinamido)cyclopropyl)benzoic acid], the Ki at human EP4 receptor [1] was 5.01 nM. For the same compound, the IC50 at human EP4 receptor [2] amounted to 38 nM.

Consider `O=C(O)c1ccc(C2(NC(=O)c3cc(C(F)(F)F)cnc3N3CC(Oc4ccc(F)cc4)C3)CC2)cc1` [E 39, 4-(1-(2-(3-(4-fluorophenoxy)azetidin-1-yl)-5-(trifluoromethyl)nicotinamido)cyclopropyl)benzoic acid], for which the Ki on human EP4 receptor [1] is 7.94 nM. The IC50 on human EP4 receptor [2] stood at 72 nM.

On to `O=C(O)c1ccc(C2(NC(=O)c3cc(F)cnc3N3CC(Oc4cccc(Cl)c4)C3)CC2)cc1` [E 54, 4-(1-(5-fluoro-2-(3-(3-chlorophenoxy)azetidin-1-yl)nicotinamido)cyclopropyl)benzoic acid], for which the Ki on human EP4 receptor [1] was 25.1 nM. Further, the IC50 at human EP4 receptor [2] amounted to 75 nM.

In the case of `O=C(O)c1ccc(C2(NC(=O)c3cc(C(F)(F)F)cnc3N3CC(Oc4ccc(F)c(F)c4)C3)CC2)cc1` [E 45, 4-(1-(2-(3-(3,4-difluorophenoxy)azetidin-1-yl)-5-(trifluoromethyl)nicotinamido)cyclopropyl)benzoic acid], the Ki on human EP4 receptor [1] is 3.16 nM. Moreover, the IC50 at human EP4 receptor [2] was found to be 10 nM.

Take `O=C(O)c1ccc(C2(NC(=O)c3cc(Cl)cnc3N3CCC(COc4cccc(F)c4)C3)CC2)cc1` (centres unmarked) [E 76, 4-(1-(5-chloro-2-(3-((3-fluorophenoxy)methyl)pyrrolidin-1-yl)nicotinamido)cyclopropyl)benzoic acid]: the Ki on human EP4 receptor [1] is 31.6 nM. The IC50 on human EP4 receptor [2] is 24 nM.

Take `O=C(O)c1ccc(C2(NC(=O)c3cc(Cl)cnc3N3CC(Nc4ccc(F)cc4)C3)CC2)cc1` [E 33, 4-(1-(5-chloro-2-(3-((4-fluorophenyl)amino)azetidin-1-yl)nicotinamido)cyclopropyl)benzoic acid]: at human EP4 receptor [1], the Ki was 6.31 nM. Besides, the IC50 on human EP4 receptor [2] was 44.5 nM.
